According to PMC7594953 (Acta Pharmacologica Sinica, 2020):
Entries after “also recorded” stand apart in the source; their conditions may differ.

How the values were obtained:
SARS2-S pseudovirus [1] = test: microbe, parasite or virus in culture; settings: Huh-7, 48 h; for EC90: read-out: SARS2-S pseudovirus EC90; for EC50: read-out: SARS2-S pseudovirus EC50
SARS-CoV-2 (WIV04) = type: cell-based
SARS-CoV S pseudovirus = test: microbe, parasite or virus in culture; type: cell-based; settings: Severe acute respiratory syndrome coronavirus; for EC90: Huh-7, read-out: SARS-CoV S pseudovirus EC90; for EC50: Huh-7, read-out: SARS-CoV S pseudovirus EC50
VSV-G pseudovirus = test: microbe, parasite or virus in culture; type: cell-based; settings: Huh-7, read-out: VSV-G pseudovirus EC50
SARS2-S pseudovirus [2] = test: in vitro; settings: human
in vitro = settings: human
SARS2-S pseudovirus [3] = settings: Huh-7 cells, screening at 20 µM
COVID-19 = settings: critically ill patients; cited from earlier work
[4] = Huh-7 CC50, Table 2, mean ± SEM from two independent experiments

Row | Compound | EC90 (SARS2-S pseudovirus [1]) [µM] | Activity against native SARS-CoV-2 replication (in words) (SARS-CoV-2 (WIV04)) | EC90 (SARS-CoV S pseudovirus) [µM] | EC50 (VSV-G pseudovirus) [µM] | EC50 (SARS2-S pseudovirus [1]) [µM] | selectivity ratio (SARS2-S pseudovirus [2]) | EC50 (SARS-CoV S pseudovirus) [µM] | CC50 (in vitro; [4]) [µM] | CC50 (in vitro; Huh7 CC50) [µM] | Activity in SARS2-S pseudovirus screening (in words) (SARS2-S pseudovirus [3]) | Improvement of oxygen support (COVID-19) [%]
1 | CCCCc1oc2ccccc2c1C(=O)c1cc(I)c(OCCN(CC)CC)c(I)c1 [Amiodarone] | 19.4 | significantly inhibited SARS2 replication | > 20 | – | – | – | – | – | – | – | –
2 | CN1CCCC(n2nc(Cc3ccc(Cl)cc3)c3ccccc3c2=O)CC1 (stereo not drawn) [Azelastine] | 5.63 | significantly inhibited SARS2 replication | > 20 | > 20 | 1.81 | > 11.3 | 2.36 ± 1.57 | > 20 | – | – | –
3 | COc1cc(Nc2c(C#N)cnc3cc(OCCCN4CCN(C)CC4)c(OC)cc23)c(Cl)cc1Cl [Bosutinib] | 1.56 | significantly inhibited SARS2 replication | 3.15 ± 0.01 | 5.07 | 1.3 | 13.6 | 1.04 ± 0.05 | 13.6 ± 2.16 | – | – | –
4 | CN(C)CC/C=C1/c2ccccc2Sc2ccc(Cl)cc21 [Chlorprothixene] | 23.8 | failed to show activity; also recorded: no anti-SARS-CoV-2 activity | – | > 20 | 2.15 | > 11.9 | – | – | – | – | –
5 | CN(C)[C@@H](CCOc1cccc2ccccc12)c1ccccc1 [Dapoxetine] | 18 | – | – | 18.9 | 1.19 | 13.1 | – | – | – | – | –
6 | OCCN1CCN(CCC=C2c3ccccc3Sc3ccc(C(F)(F)F)cc32)CC1 [Flupenthixol] | 8.68 | significantly inhibited SARS2 replication | 10.8 ± 1.05 | 17.9 | 1.45 | 11.7 | 1.39 ± 0.35 | 14.7 ± 3.28 | – | – | –
7 | COc1cc2ncnc(Nc3ccc(F)c(Cl)c3)c2cc1OCCCN1CCOCC1 [Gefitinib] | 20.3 | – | – | – | – | – | – | – | – | – | –
8 | CNCCC=C1c2ccccc2CCc2ccccc21 [Nortriptyline] | 5.26 | failed to show activity | – | 17.2 | 1.06 | 14.5 | – | – | 16.8 | – | –
9 | OCCN1CCN(CCCN2c3ccccc3Sc3ccc(Cl)cc32)CC1 [Perphenazine] | > 20 | failed to show activity | – | > 20 | 2.14 | 14.7 | – | – | – | – | –
10 | CC(CN1c2ccccc2Sc2ccccc21)N(C)C (stereo not drawn) [Promethazine] | 18.2 | failed to show activity | – | > 20 | 0.96 | > 20.8 | – | – | – | – | –
11 | CNCCCC1c2ccccc2C=Cc2ccccc21 [Protriptyline] | 7.21 | – | – | > 20 | 1.68 | > 13.5 | – | – | > 20 | – | –
12 | O=C(O[C@H]1CN2CCC1CC2)N1CCc2ccccc2[C@@H]1c1ccccc1 [Solifenacin] | 8.98 | – | – | > 20 | 2.03 | > 9.66 | – | – | – | – | –
13 | CN(C)CCOc1ccc(/C(=C(/CCCl)c2ccccc2)c2ccccc2)cc1 [Toremifene] | 13 | significantly inhibited SARS2 replication | > 20 | 17.7 | 1.92 | 8.92 | 2.28 ± 1.09 | > 20 | – | – | –
14 | CC(CN(C)C)CN1c2ccccc2Sc2ccccc21 (stereo not drawn) [Trimeprazine] | 3.77 | significantly inhibited SARS2 replication | 4.3 ± 0.48 | 5.87 | 0.97 | 14.2 | 0.66 ± 0.45 | 16.7 ± 1.89 | – | – | –
15 | CN(C)CCCN1c2ccccc2Sc2ccc(Cl)cc21 [chlorpromazine] | – | – | – | – | – | – | – | – | – | limited toxicity/activity window | –
16 | Cc1ccc(NC(=O)c2ccc(CN3CCN(C)CC3)cc2)cc1Nc1nccc(-c2cccnc2)n1 [imatinib] | – | – | – | – | – | – | – | – | – | weak activity | –
17 | CCC(CC)COC(=O)[C@H](C)N[P@](=O)(OC[C@H]1O[C@@](C#N)(c2ccc3c(N)ncnn23)[C@H](O)[C@@H]1O)Oc1ccccc1 [remdesivir] | – | – | – | – | – | – | – | – | – | – | 68
